In patent US8287893B2, “Bioactive agrichemical compositions and use thereof” (Sciessent LLC, priority 2007, dated 2012):
Where two headings read alike, the source gives them in different places.

Assays:
[1] = tested on: Saccharomycetes Cerevisiae (Fleishmann's Bakers yeast); assay: Yeast growth suppression, turbidity of yeast suspension in growth medium; assay type: cell-based; parameters: key to turbidity T0 / turbidity T18 / change in turbidity T48 − T0 / turbidity T48 / turbidity T72 / turbidity T96 / change in turbidity T18 − T0 / change in turbidity T72 − T0 / change in turbidity T96 − T0: turbidity in NTU
Experimental: Saccharomycetes Cerevisiae was selected as a test organism as it is generally accepted in the industry as an indicator or surrogate organism for a wide variety of fungi. In each of these experiments, the same general procedure was followed unless otherwise indicated.
Experimental Detail: A growth medium was prepared by adding 10 grams of nutrient medium (Difco Sabouraud dextrose broth from BD of Franklin Lakes, N.J., USA) to 300 ml of distilled water. Fleishmann's Bakers yeast was then added to the growth medium while mixing using a magnetic stirrer until a uniform dispersion was obtained having an initial turbidity of between about 50 and 100 NTU as measured using a HF Instruments DRT 100B Turbidity Meter. Once the appropriate dispersion was obtained, 20 ml aliquots were then dispensed, with continued mixing, into 40 ml borosilicate glass vials with Teflon lined caps (VWR International Cat. No. 15900-004). The system/component to be evaluated was then added to the vial and intimately shaken to ensure a good, substantially homogeneous mixture. The turbidity of each mixture was then determined and the vial transferred to an incubator at 30° C. Each vial was periodically removed from the incubator and the mixture in the vials assessed for turbidity: the specific timing for such evaluation was as set forth in the discussion of the experiments and the accompanying tables.
In each experiment, unless otherwise specified, a 2 ml aqueous solution containing the specified bioactive system or component thereof was added to the 20 ml yeast suspension and mixed thoroughly. Typically the surfactants were added separately in a concentrated solution in water; however, the volume added was negligible: a fraction of an ml. For convenience in understanding efficacy levels, the amounts or concentrations of the various components presented in each of the following tables and experiments are of the diluted material in the test vial: not of the concentrate added to the test vial. Furthermore, the concentrations presented are on the basis of a 20 ml total volume, not the actual 22+ ml volume. Multiplying each of the listed concentrations by 0.9 (or 0.95 with those compositions using 1 ml aqueous solutions) will provide a more accurate assessment of the concentrations of the various components evaluated, i.e., a 5 ppm silver concentration is actually closer to 4.5 ppm. Finally, for those vials to which no bioactive system or component thereof was added (the controls) or which only contained the surfactants, 2 ml of additional growth medium was added to ensure relative equivalent dilutions of the yeast.
In the tables below, the results are presented as the actual turbidity readings (NTU) with a sub-table presenting the change or delta in NTU values. Given the nature of the system, changes in turbidity are reflective of the relative performance/bioefficacy of the bioactive systems and their components.

E. amylovora 153N = assay: Fire blight on Snow Drift crabapple trees (Example 287); assay type: in vivo; details: for cankers, result in words / shoot blight incidence, result in words: day 63
Experimental: A study of the bioefficacy of the various agrichemical compositions, including bioactive acid solutions and blends thereof with an antibiotic agrichemical, were evaluated to assess their bioefficacy against fire blight on crabapples. The study was conducted on 5 year old Snow Drift crabapple trees, with each of the compositions being applied to ten trees in two-subplots of five trees, four different times: at 100% bloom-day 1, a second application was made on day 4, a third on day 11 and a final treatment on day 19. The trees were inoculated with E. amylovora […] at a concentration of 4×10^6 cells per milliliter on day 1, following drying of the treatment, with the inoculation being repeated on day 13. Evaluation for fire blight was completed on 100 blossoms for each of the subplots on day 12, day 19 and day 27. Additionally, the incidence of shoot infection and the length of […] evaluated on day 63. The test compositions were prepared by forming solutions of the bioactive agents. Two different dilutions of the MI2 bioactive were evaluated; the first employing 94.46 ml/gallon (25 ml/l) of water (5 ppm of each metal) and the second 188.9 ml/gallon (50 ml/l) of water (10 ppm of each metal). […] Finally, copper hydroxide was diluted at a rate of 1 lb/gallon (119.8 g/l). Each of the compositions and blends were spray applied at a rate of 50 gallons (189.3 l) pre acre. The results are presented as the mean of the counts.

[2] = Table 12, surfactant ~0.05 wt % neat, Metal ppm 0
[3] = Table 12, surfactants ~0.05 wt %, Metal ppm 2.5 each of Cu, Ag, Zn, ~0.2% citric acid
[4] = Table 12, surfactants ~0.05 wt %, Metal ppm 5 each of Cu, Ag, Zn, ~0.4% citric acid

CCCCCCCCCCCCOS(=O)(=O)[O-].[Na+]
change in turbidity T48 − T0 [1, 2]: 610
turbidity T0 [1, 2]: 48
turbidity T18 [1, 2]: 495
change in turbidity T18 − T0 [1, 3]: 2
change in turbidity T48 − T0 [1, 3]: 0
change in turbidity T72 − T0 [1, 3]: 0
change in turbidity T96 − T0 [1, 3]: −1
turbidity T0 [1, 3]: 88
turbidity T18 [1, 3]: 90
turbidity T48 [1, 3]: 88
turbidity T72 [1, 3]: 88
turbidity T96 [1, 3]: 87
change in turbidity T18 − T0 [1, 4]: 13
change in turbidity T48 − T0 [1, 4]: 2
change in turbidity T72 − T0 [1, 4]: 7
change in turbidity T96 − T0 [1, 4]: 1

O=C([O-])CC(O)(CC(=O)[O-])C(=O)[O-].[Ag+].[Ag+].[Ag+] [Example 1, silver citrate]
Change in Turbidity from T0 (delta NTU) Time 1 Hr ([1]; Table 1A, 1 hour): 15.1 NTU
Change in Turbidity from T0 (delta NTU) T 18 hours ([1]; Table 1A, 18 hours): 845.5 NTU
Change in Turbidity from T0 (delta NTU) T 24 hours ([1]; Table 1A, 24 hours): 887.5 NTU
Change in Turbidity from T0 (delta NTU) T 96 Hours ([1]; Table 1A, 96 hours): 950.5 NTU

O=C([O-])CC(O)(CC(=O)[O-])C(=O)[O-].O=C([O-])CC(O)(CC(=O)[O-])C(=O)[O-].[Zn+2].[Zn+2].[Zn+2] [Example 7, zinc citrate]
Change in Turbidity from T0 (delta NTU) T 96 Hours [1]: 1007.2 NTU
Change in Turbidity from T0 (delta NTU) T 18 hours [1]: 948.2 NTU
Change in Turbidity from T0 (delta NTU) T 24 hours [1]: 949.2 NTU
Change in Turbidity from T0 (delta NTU) Time 1 Hr [1]: 20.7 NTU

[Cu+2].[OH-].[OH-] [copper hydroxide]
Shoot Incidence (E. amylovora 153N; Day 63, rate 5 lbs/a (2.27 kg/a), mean of the counts): 1.0
cankers, result in words (E. amylovora 153N): appeared to prevent canker
shoot blight incidence, result in words (E. amylovora 153N): greatly reduced

[H]/N=C(/N)N[C@H]1[C@H](O)[C@@H](O)[C@H](O[C@@H]2O[C@@H](C)[C@](O)(C=O)[C@H]2O[C@@H]2O[C@@H](CO)[C@H](O)[C@@H](O)[C@@H]2NC)[C@@H](N/C(N)=N\[H])[C@@H]1O [streptomycin]
cankers, result in words (E. amylovora 153N): appeared to prevent canker
shoot blight incidence, result in words (E. amylovora 153N): greatly reduced

copper citrate [Example 13]
Change in Turbidity from T0 (delta NTU) T 96 Hours [1]: 1054.4 NTU
Change in Turbidity from T0 (delta NTU) T 18 hours [1]: 894.4 NTU
Change in Turbidity from T0 (delta NTU) T 24 hours [1]: 975.4 NTU
Change in Turbidity from T0 (delta NTU) Time 1 Hr [1]: 22.4 NTU
